Some test systems named below: EKVX NSCLC; HL-60(TB) leukemia; NCI-H226 lung; SN12C renal; HCT-15 colon; KM12 colon; SK-MEL-5 melanoma; UO-31 renal; PC-3 prostate; HT29 colon; HS 578T breast; SNB-75 CNS.
Test in all cases: NCI anticancer screen, dose series, 48 h

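Tested at 5 concentrations; 48 h exposure; 96-well plates; endpoints linearly interpolated, else capped at highest concentration. The concentration for full growth arrest is given as TGI.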 Where a SMILES comes first, the peptide text is derived from it. The star is where a group is joined. Boc = CC(C)(C)OC(=O)*; Bn = c1ccc(C*)cc1

Turning to `COc1cc(OC)cc(Oc2nc3ccccc3nc2C(F)(F)F)c1`, the TGI with EKVX NSCLC, in the test with HL-60(TB) leukemia, in the test with NCI-H226 lung, in the test on SN12C renal, with HCT-15 colon and in the test on KM12 colon was above 100 µM throughout. Moreover, the TGI with SK-MEL-5 melanoma, in the test on UO-31 renal, in the test with PC-3 prostate, with HT29 colon, in the test with HS 578T breast and in the test with SNB-75 CNS was above 100 µM throughout.

`CO[C@@]12C[C@@H](C)C3=CCC(C)=C3CC1=C(C)C(=O)O2`: the TGI in the test with EKVX NSCLC, in the test on HL-60(TB) leukemia, in the test with NCI-H226 lung, with HCT-15 colon, in the test with KM12 colon and with SK-MEL-5 melanoma was above 100 µM in each case. Besides, the TGI in the test with UO-31 renal, in the test with PC-3 prostate, in the test on HT29 colon, in the test on HS 578T breast and in the test with SNB-75 CNS was above 100 µM each time.

Consider `COc1cc(Nc2nc3ccccc3nc2C(=O)O)cc(OC)c1OC`, for which the TGI in the test with EKVX NSCLC, with HL-60(TB) leukemia, in the test on NCI-H226 lung, with SN12C renal, in the test on HCT-15 colon and in the test with KM12 colon was above 100 µM each time. In addition, the TGI with SK-MEL-5 melanoma was above 100 µM; with UO-31 renal, above 100 µM; with PC-3 prostate, above 100 µM; in the test on HS 578T breast, 92 µM; in the test on SNB-75 CNS it was above 100 µM.

Take `C/C=C/C(CC(O)(C(F)(F)F)C(F)(F)F)=N/NC(N)=S`: the TGI in the test with EKVX NSCLC, in the test on HL-60(TB) leukemia, in the test on NCI-H226 lung, in the test on SN12C renal, in the test on HCT-15 colon and in the test on KM12 colon was above 10 µM throughout. Moreover, the TGI with SK-MEL-5 melanoma, in the test on PC-3 prostate, with HT29 colon, with HS 578T breast and in the test on SNB-75 CNS was above 10 µM in each case.

Turning to `COC(=O)C(CC(C)C)NC(=O)C(C)NC(=O)C(Cc1ccc(OCc2ccccc2)cc1)NC(=O)C(COCc1ccccc1)NC(=O)OC(C)(C)C` (stereo not given) (Boc-S(Bn)Y(Bn)AL-OMe; configuration not given here), the TGI with EKVX NSCLC, in the test on HL-60(TB) leukemia, with NCI-H226 lung, in the test with SN12C renal, in the test with KM12 colon and in the test with SK-MEL-5 melanoma was above 100 µM in each case. Besides, the TGI in the test on UO-31 renal, in the test on PC-3 prostate, in the test with HT29 colon, in the test with HS 578T breast and in the test with SNB-75 CNS was above 100 µM each time.

`C=CCc1cccc2cc(C(=O)NCc3ccccc3)c(=N)oc12`: the TGI was above 100 µM with EKVX NSCLC; above 100 µM in the test on HL-60(TB) leukemia; 79.3 µM in the test on NCI-H226 lung; 91 µM with SN12C renal; above 100 µM in the test on HCT-15 colon; above 100 µM in the test with KM12 colon. Moreover, the TGI in the test on SK-MEL-5 melanoma is 64.4 µM; with PC-3 prostate it was above 100 µM; with HT29 colon, above 100 µM; in the test with HS 578T breast it was 63.8 µM; in the test on SNB-75 CNS, above 100 µM.

For `CCO/C(O)=C(/C(=N)N1CCOCC1)C(=O)Nc1ccc(F)cc1`, the TGI in the test on EKVX NSCLC, in the test with HL-60(TB) leukemia, in the test on NCI-H226 lung, in the test on SN12C renal, in the test on HCT-15 colon and with KM12 colon was above 100 µM each time. For the same compound, the TGI in the test with PC-3 prostate, with HT29 colon, with HS 578T breast and in the test with SNB-75 CNS was above 100 µM throughout.

For the compound `O=C1COc2cccnc2N1CCCCO`, the TGI in the test with EKVX NSCLC, in the test with HL-60(TB) leukemia, with SN12C renal, in the test on HCT-15 colon, with KM12 colon and with SK-MEL-5 melanoma was above 100 µM each time. Also, the TGI in the test on UO-31 renal, in the test on PC-3 prostate, in the test with HS 578T breast and in the test on SNB-75 CNS was above 100 µM in each case.

Turning to `O=C1c2ccccc2C(=O)c2c(NCC(O)CO)ccc(NCC(O)CO)c21` (stereo not given), the TGI in the test on EKVX NSCLC, in the test with HL-60(TB) leukemia, in the test with NCI-H226 lung, in the test on SN12C renal, in the test on HCT-15 colon and in the test with SK-MEL-5 melanoma was above 100 µM in each case. Further, the TGI with UO-31 renal was 71.2 µM; with PC-3 prostate, above 100 µM; with HT29 colon, above 100 µM; in the test with HS 578T breast, above 100 µM; in the test on SNB-75 CNS, above 100 µM.

Take `COc1ccc(C2SC(N)=Nc3c2c(C)nn3C(=O)c2ccncc2)cc1OC` (stereo not given): the TGI in the test on EKVX NSCLC, in the test on HL-60(TB) leukemia, in the test on NCI-H226 lung, with SN12C renal, in the test on HCT-15 colon and with KM12 colon was above 10 µM each time. In addition, the TGI in the test with SK-MEL-5 melanoma, with PC-3 prostate, in the test on HT29 colon, in the test on HS 578T breast and in the test with SNB-75 CNS was above 10 µM throughout.

In the case of `CC(=O)Nc1sc(Br)cc1S(=O)(=O)c1ccc(Cl)cc1`, the TGI with EKVX NSCLC was above 100 µM; in the test with HL-60(TB) leukemia it was 63.4 µM; in the test on NCI-H226 lung, 57.1 µM; in the test on SN12C renal it was above 100 µM; in the test on KM12 colon, 45.4 µM; in the test on UO-31 renal, 83.1 µM. For the same compound, the TGI is 43.1 µM with PC-3 prostate, 30.8 µM in the test on HT29 colon, 56.3 µM with HS 578T breast and 88.6 µM in the test with SNB-75 CNS.

Take `O=C1/C(=C/c2ccc(Br)s2)NC(=S)N1c1ccccc1`: the TGI with EKVX NSCLC, in the test on HL-60(TB) leukemia, with NCI-H226 lung, in the test with SN12C renal, in the test on HCT-15 colon and with KM12 colon was above 100 µM throughout. The TGI in the test with SK-MEL-5 melanoma, in the test with UO-31 renal, with PC-3 prostate, in the test on HT29 colon and in the test with HS 578T breast was above 100 µM throughout.

The record behind these values is PubChem BioAssay (NCI).
